Reference: patent US5776929A, “Benzodiazepine derivative” (Shionogi & Co., Ltd., priority 1993, dated 1998)
Where two headings read alike, the source gives them in different places.

Assays:
gastrin receptor = molecular target: T1, gastrin receptor (Cavia porcellus, UniProt H0VZC5); assay: Gastrin receptor antagonism, displacement of 125I-labeled gastrin, gastric (fundic) gland cells; type: binding, guinea pig (male Hartley)
T1 construct: stomach was extracted from each animal immediately, from which gastric glands were prepared; from tissue; host or cells: gastric (fundic) glands of male Hartley guinea pigs
T1 sequence (H0VZC5 1-426): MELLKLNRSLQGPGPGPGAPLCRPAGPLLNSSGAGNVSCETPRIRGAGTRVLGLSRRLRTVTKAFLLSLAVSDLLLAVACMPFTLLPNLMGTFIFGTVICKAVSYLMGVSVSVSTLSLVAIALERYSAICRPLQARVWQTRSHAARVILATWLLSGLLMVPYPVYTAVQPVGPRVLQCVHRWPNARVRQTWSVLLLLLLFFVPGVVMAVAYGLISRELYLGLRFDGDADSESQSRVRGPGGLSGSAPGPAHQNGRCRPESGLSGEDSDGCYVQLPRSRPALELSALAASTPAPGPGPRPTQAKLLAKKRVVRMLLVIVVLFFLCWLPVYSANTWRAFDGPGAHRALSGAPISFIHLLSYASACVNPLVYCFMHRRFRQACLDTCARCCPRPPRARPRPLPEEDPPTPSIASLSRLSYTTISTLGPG
Description: (§1) Male Hartley guinea pig (450-600 g) or male ddY mouse (24-30 g) were used.
(1) Gastrin Receptor Antagonism
Preparation of gastric glands:
Male Hartley guinea pigs (450-600 g) were killed by bleeding and stomach was extracted from each animal immediately, from which gastric glands were prepared.
Preparation of test compounds and procedures of displacing assay
A 1M solution of a compound to be tested in DMSO is prepared and diluted with 50% DMSO to obtain a ten-fold dilution series.
The mixture is incubated for 30 min at 25° C., centrifuged at 2000 rpm for 5 min and the supernatant is removed by aspiration. To the pellet is added ice-cooled incubation buffer and mixed gently, followed by an immediate centrifugation and removal of the supernatant by aspiration. The radioactivity is counted on gamma counter. The same procedure was repeated using 50% DMSO solution or human gastrin I (final concentration, 2 μM) instead of a solution of test compound so as to obtain the control value regarding total binding or the value regarding non-specific binding, respectively. […]
(§2) specific binding of control=total binding (cpm)-non-specific binding (cpm); and specific binding of test compound=[…]-non-specific binding (cpm).

CCK-B receptor = molecular target: T2, CCK-B receptor (Mus musculus, UniProt P56481); assay: CCK-B receptor antagonism, displacement of [3H]CCK-8, cerebral cortex crude membrane; type: binding, mouse (male ddY)
T2 construct: crude membrane specimen from mouse cerebral cortex; from tissue; host or cells: cerebral cortex of male ddY mice, crude membranes
T2 sequence (P56481 1-453): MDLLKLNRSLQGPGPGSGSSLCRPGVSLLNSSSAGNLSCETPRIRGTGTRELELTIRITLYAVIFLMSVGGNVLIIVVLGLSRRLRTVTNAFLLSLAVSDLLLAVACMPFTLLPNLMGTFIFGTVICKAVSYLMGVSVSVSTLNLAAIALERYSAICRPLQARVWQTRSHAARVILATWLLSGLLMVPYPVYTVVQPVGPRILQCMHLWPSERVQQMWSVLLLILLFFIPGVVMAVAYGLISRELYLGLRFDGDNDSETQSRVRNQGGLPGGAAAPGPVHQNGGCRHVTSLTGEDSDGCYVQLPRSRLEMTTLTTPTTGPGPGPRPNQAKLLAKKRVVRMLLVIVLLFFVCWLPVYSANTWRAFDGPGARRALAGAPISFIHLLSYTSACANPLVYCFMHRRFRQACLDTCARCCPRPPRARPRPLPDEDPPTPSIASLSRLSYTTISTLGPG
Description: as §1
(§3) (2) CCK-A Receptor Antagonism and CCK-B Receptor Antagonism
(§4) Preparation of CCK receptor preparations
(§5) Male ddY mice (24 to 30 g) were killed by decapitation and cerebral cortex (CCK-B) and pancreas (CCK-A) were extracted immediately. Each of cerebral cortex and pancreas was mixed with 50 mM Tris-HCl buffer (pH 7.4) and homogenized with a teflon-glass homogenizer and polytron homogenizer to obtain crude membrane specimens.
(§6) Preparation of test compounds and procedures of displacing assay A 1M solution of a compound to be tested in DMSO is prepared and diluted with 50% DMSO to obtain a ten-fold dilution series.
(§7) The reaction is initiated by the addition of crude membrane specimen to solutions of different concentration each containing [^3 H]CCk-8 (final concentration, 1 nM). The mixture is incubated for 90 min at 25° C., filtered through glass filter with aspiration and washed with a cooled 50 mM Tris buffer. After the addition of Aquazol-2 cocktail the radioactivity is counted. The same procedure was repeated using 50% DMSO solution or Ceruletide (final concentration, 1 μM) instead of a solution of test compound so as to obtain the control value regarding total binding or the value regarding non-specific binding, respectively. […]
as §2

CCK-A receptor = molecular target: T3, CCK-A receptor (Mus musculus, UniProt O08786); assay: CCK-A receptor antagonism, displacement of [3H]CCK-8, pancreas crude membrane; type: binding, mouse (male ddY)
T3 construct: crude membrane specimen from mouse pancreas; from tissue; host or cells: pancreas of male ddY mice, crude membranes
T3 sequence (O08786 1-436): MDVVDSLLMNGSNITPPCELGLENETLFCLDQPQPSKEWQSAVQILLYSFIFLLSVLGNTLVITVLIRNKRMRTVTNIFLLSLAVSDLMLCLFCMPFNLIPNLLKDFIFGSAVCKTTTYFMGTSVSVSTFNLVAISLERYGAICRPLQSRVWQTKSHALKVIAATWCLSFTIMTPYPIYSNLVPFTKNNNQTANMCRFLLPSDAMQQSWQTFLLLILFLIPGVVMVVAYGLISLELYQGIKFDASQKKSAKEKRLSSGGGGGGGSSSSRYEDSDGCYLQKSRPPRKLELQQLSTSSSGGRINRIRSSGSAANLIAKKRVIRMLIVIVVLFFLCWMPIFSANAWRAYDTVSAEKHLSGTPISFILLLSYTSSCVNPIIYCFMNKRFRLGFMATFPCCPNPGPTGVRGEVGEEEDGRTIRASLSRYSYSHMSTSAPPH
Description: as §1, §3, §4, §5, §6, §7, §2

[1] = guinea pig gastric glands, 125I-gastrin 0.2 nM, 30 min, 25 °C, read-out: Receptor Gastrin (IC50)
[2] = mouse cerebral cortex membrane, [3H]CCK-8 1 nM, 90 min, 25 °C, read-out: Receptor CCK-B (IC50)
[3] = mouse pancreas membrane, [3H]CCK-8 1 nM, 90 min, 25 °C, read-out: Receptor CCK-A (IC50)

Cc1cccc(NC(=O)NC2C(=O)N(CC(=O)OC(C)(C)C)c3ccccc3N(CC(=O)OC(C)(C)C)C2=O)c1 [Compound 8s, 1,5-Bis-(t-butoxycarbonylmethyl)-3-(N'-(m-tolyl)ureido)-1H-1,5-benzodiazepine-2,4(3H,5H)-dione]
IC50 (gastrin receptor; [1]): 2 nM
IC50 (CCK-B receptor; [2]): 2 nM
IC50 (CCK-A receptor; [3]): 100 nM

COC(=O)CCCNC(=O)OCc1cccc(NC(=O)NC2C(=O)N(CC(=O)N3CCCC3)c3ccccc3N(CC(=O)N3CCCC3)C2=O)c1 [Compound 9a, 1,5-Bis-(pyrrolidinecarbonylmethyl)-3-(N'-(3-(3-(carbomethoxy)propylcarbamoyloxymethyl)phenyl)ureido)-1H-1,5-benzodiazepine-2,4(3H,5H) -dione]
IC50 (gastrin receptor; [1]): 8 nM
IC50 (CCK-B receptor; [2]): 130 nM
IC50 (CCK-A receptor; [3]): 2100 nM

COC(=O)CCCNC(=O)OCc1cccc(NC(=O)NC2C(=O)N(CC(=O)N3CCSC3)c3ccccc3N(CC(=O)N3CCSC3)C2=O)c1 [Compound 9b, 1,5-Bis-(thiazolidinecarbonylmethyl)-3-(N'-(3-(3-(carbomethoxy)propylcarbamoyloxymethyl)phenyl)ureido)-1H-1,5-benzodiazepine-2,4(3H,5H)-dione]
IC50 (gastrin receptor): 14 nM
IC50 (CCK-B receptor): 120 nM
IC50 (CCK-A receptor): 360 nM

COC(=O)CCCNC(=O)OCc1cccc(NC(=O)NC2C(=O)N(CC(=O)c3ccccc3C)c3ccccc3N(CC(=O)c3ccccc3C)C2=O)c1 [Compound 9d, 1,5-Bis-(o-methylphenacyl)-3-(N'-(3-(3-(carbomethoxy)propylcarbamoyloxymethyl)phenyl)ureido)-1H-1,5-benzodiazepine-2,4(3H,5H)-dione]
IC50 (gastrin receptor; [1]): 6 nM
IC50 (CCK-B receptor; [2]): 11 nM
IC50 (CCK-A receptor; [3]): < 100 nM

COC(=O)CCCNC(=O)OCc1cccc(NC(=O)NC2C(=O)N(CC(=O)c3ccco3)c3ccccc3N(CC(=O)c3ccco3)C2=O)c1 [Compound 9f, 1,5-Bis-(2-furylcarbonylmethyl)-3-(N'-(3-(3-(carbomethoxy)propylcarbamoyloxymethyl)phenyl)ureido) -1H-1,5-benzodiazepine-2,4(3H,5H)-dione]
IC50 (gastrin receptor; [1]): 7 nM
IC50 (CCK-B receptor; [2]): 62 nM
IC50 (CCK-A receptor; [3]): 1400 nM

COC(=O)CCCNC(=O)OCc1cccc(NC(=O)NC2C(=O)N(CC(=O)c3cccs3)c3ccccc3N(CC(=O)c3cccs3)C2=O)c1 [Compound 9g]
IC50 (gastrin receptor; [1]): 3 nM
IC50 (CCK-B receptor; [2]): 7 nM
IC50 (CCK-A receptor; [3]): 420 nM

COC(=O)CCCNC(=O)OCc1cccc(NC(=O)NC2C(=O)N(CC(=O)C3CC3)c3ccccc3N(CC(=O)C3CC3)C2=O)c1 [Compound 9h, 1,5-Bis-(cyclopropylcarbonylmethyl)-3-(N'-(3-(3-(carbomethoxy)propylcarbamoyloxymethyl)phenyl)ureido)-1H-1,5-benzodiazepine-2,4(3H,5H)-dione]
IC50 (gastrin receptor; [1]): 4 nM
IC50 (CCK-B receptor; [2]): 20 nM
IC50 (CCK-A receptor; [3]): 1250 nM

COC(=O)CCCNC(=O)OCc1cccc(NC(=O)NC2C(=O)N(CC(=O)C3CCCC3)c3ccccc3N(CC(=O)C3CCCC3)C2=O)c1 [Compound 9i, 1,5-Bis-(cyclopentylcarbonylmethyl)-3-(N'-(3-(3-(carbomethoxy)propylcarbamoyloxymethyl)phenyl)ureido)-1H-1,5-benzodiazepine-2,4(3H,5H)-dione]
IC50 (gastrin receptor; [1]): 7 nM
IC50 (CCK-B receptor; [2]): 2 nM
IC50 (CCK-A receptor; [3]): 290 nM

COC(=O)CCCNC(=O)OCc1cccc(NC(=O)NC2C(=O)N(CC3CC3)c3ccccc3N(CC3CC3)C2=O)c1 [Compound 9o, 1,5-Bis-(cyclopropylmethyl)-3-(N'-(3-(3-(carbomethoxy)propylcarbamoyloxymethyl)phenyl)ureido)-1H-1,5-benzodiazepine-2,4(3H,5H)-dione]
IC50 (gastrin receptor; [1]): 31 nM
IC50 (CCK-B receptor; [2]): 78 nM
IC50 (CCK-A receptor; [3]): 3900 nM

O=C(CN1C(=O)C(NC(=O)Nc2cccc(COC(=O)NCCCC(=O)OCc3ccccc3)c2)C(=O)N(CC(=O)NC2CC2)c2ccccc21)NC1CC1 [Compound 10c, 1,5-Bis-(cyclopropylcarbamoylmethyl)-3-(N'-(3-(3-(benzoyloxycarbonyl)propylcarbamoyloxymethyl)-phenyl)ureido)-1H-1,5-benzodiazepine-2,4 (3H,5H)-dione]
IC50 (gastrin receptor; [1]): 64 nM
IC50 (CCK-B receptor; [2]): 380 nM
IC50 (CCK-A receptor; [3]): 2100 nM

CC(C)(C)OC(=O)CN1C(=O)C(NC(=O)Nc2cccc(COC(=O)NCCCC(=O)OCc3ccccc3)c2)C(=O)N(CC(=O)OC(C)(C)C)c2ccccc21 [Compound 10s, 1,5-Bis-(tert-butoxycarbonylmethyl)-3-(N'-(3-(3-(benzyloxycarbonyl)propylcarbamoyloxymethyl)phenyl)-ureido)-1H-1,5-benzodiazepine-2,4(3H,5H)-dione]
IC50 (gastrin receptor; [1]): 7 nM
IC50 (CCK-B receptor; [2]): 4 nM
IC50 (CCK-A receptor; [3]): < 100 nM

O=C(O)CCCNC(=O)OCc1cccc(NC(=O)NC2C(=O)N(CC(=O)c3ccco3)c3ccccc3N(CC(=O)c3ccco3)C2=O)c1 [Compound 11f, 1,5-Bis-(2-furylcarbonylmethyl)-3-(N'-(3-(3-(carboxy)propylcarbamoyloxymethyl)phenyl)ureido)-1H-1,5-benzodiazepine-2,4(3H,5H)-dione]
IC50 (gastrin receptor; [1]): 6 nM
IC50 (CCK-B receptor; [2]): 38 nM
IC50 (CCK-A receptor; [3]): 800 nM

O=C(O)CCCNC(=O)OCc1cccc(NC(=O)NC2C(=O)N(CC3CC3)c3ccccc3N(CC3CC3)C2=O)c1 [Compound 11o, 1,5-Bis-(cyclopropylmethyl)-3-(N'-(3-(3-(carboxy)propylcarbamoyloxymethyl)phenyl)ureido)-1H-1,5-benzodiazepine-2,4(3H,5H)-dione]
IC50 (gastrin receptor; [1]): 18 nM
IC50 (CCK-B receptor; [2]): 36 nM
IC50 (CCK-A receptor; [3]): 1850 nM

CCOC(=O)c1cccc(NC(=O)NC2C(=O)N(CC(=O)N3CCCC3)c3ccccc3N(CC(=O)N3CCCC3)C2=O)c1 [Compound 18-i, 1,5-Bis-(pyrrolidinocarbonylmethyl)-3-(N'-(m-(carboethoxy)phenyl)ureido)-1H-1,5-benzodiazepine-2,4(3H,5H)-dione]
IC50 (gastrin receptor; [1]): 25 nM
IC50 (CCK-B receptor; [2]): 440 nM
IC50 (CCK-A receptor; [3]): 3200 nM
